From BindingDB's records for PubMed 10604951 (University of Colorado, 2000)
pKi: −log10 of the molar value.

target: Glutamate receptor ionotropic, NMDA 1 (Rattus norvegicus, UniProt P35439)

| pKi | SMILES |
| --- | --- |
| < 5.00 | NC(=O)N1c2ccccc2C=Cc2ccccc21 [5H-dibenzo[b,f]azepine-5-carboxamide] |
| < 5.00 | O=C(O)c1cc(NC(=O)N(c2ccccc2)c2ccccc2)c2c(Cl)cc(Cl)cc2n1 [DCUKA] |
| < 5.00 | COC(=O)c1cc(NC(=O)N(c2ccccc2)c2ccccc2)c2c(Cl)cc(Cl)cc2n1 [DCUK-Ome] |
